Measurements taken from PMC4099364, “Comparing Binding Modes of Analogous Fragments Using NMR in Fragment-Based Drug Design: Application to PRDX5” (PLoS ONE, 2014).

Target: T1, human peroxiredoxin 5 (PRDX5) (Homo sapiens, UniProt P30044)
T1 construct: 6xHis-tagged, pQE-30, E. coli M15, 15N-labelled for HSQC; reduced with DTT
T1 sequence (P30044 54-214): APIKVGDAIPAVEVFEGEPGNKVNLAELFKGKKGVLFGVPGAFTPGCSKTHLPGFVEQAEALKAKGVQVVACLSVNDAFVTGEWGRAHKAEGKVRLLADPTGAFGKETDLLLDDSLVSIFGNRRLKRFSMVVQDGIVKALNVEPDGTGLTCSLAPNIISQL
Experiment: […]-HSQC NMR titration (combined CSP fit)
Format: binding

## Oc1cccc(-c2ccccc2)c1O [compound 5, 2,3 dihydroxy-biphenyl]
  Kd: 390 ± 50 µM
